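All cell lines were grown in 96-well plates and treated with compound for 48 hours. The concentration for 50% growth inhibition is given as GI50.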 The source made the active and inactive calls. No stated cut-off is given here; in the data, active = GI50 up to about 1.1 µM and inactive = higher.
Legend:
Assay in all cases: NCI tumour cell line growth inhibition, 48 h
786-0 = tested on: 786-0
NCI-H23 = tested on: NCI-H23
M19-MEL = tested on: M19-MEL
UO-31 = tested on: UO-31
HCT-116 = tested on: HCT-116
RXF 393 = tested on: RXF 393
ACHN = tested on: ACHN
K562 = tested on: K562
DMS-114 = tested on: DMS-114
HOP-62 = tested on: HOP-62
KM-20L2 = tested on: KM-20L2
HL-60 = tested on: HL-60
HCC 2998 = tested on: HCC 2998
TK-10 = tested on: TK-10
HT-29 = tested on: HT-29
LOX IMVI = tested on: LOX IMVI
SK-MEL-28 = tested on: SK-MEL-28
LXFL 529 = tested on: LXFL 529
SNB-78 = tested on: SNB-78
UACC-62 = tested on: UACC-62
U-251 = tested on: U-251
KM12 = tested on: KM12
DLD-1 = tested on: DLD-1
UACC-257 = tested on: UACC-257
COLO 205 = tested on: COLO 205
SNB-19 = tested on: SNB-19
OVCAR-5 = tested on: OVCAR-5
HCT-15 = tested on: HCT-15
OVCAR-4 = tested on: OVCAR-4
EKVX = tested on: EKVX
SK-MEL-2 = tested on: SK-MEL-2
SK-MEL-5 = tested on: SK-MEL-5
A498 = tested on: A498
SF-539 = tested on: SF-539
SF-295 = tested on: SF-295
A549 = tested on: A549
RXF 631 = tested on: RXF 631
IGROV-1 = tested on: IGROV-1
Malme-3M = tested on: Malme-3M
SN12C = tested on: SN12C
M14 = tested on: M14
SW-620 = tested on: SW-620
SK-OV-3 = tested on: SK-OV-3
CAKI-1 = tested on: CAKI-1
CCRF-CEM = tested on: CCRF-CEM
SF-268 = tested on: SF-268
NCI-H460 = tested on: NCI-H460
DMS-273 = tested on: DMS-273

Cc1nnc2n1N=C(CC(=O)c1ccc(O)cc1O)CN2N
GI50 (786-0): > 100 µM (inactive)
GI50 (NCI-H23): > 100 µM (inactive)
GI50 (M19-MEL): 91.4 µM (inactive)
GI50 (UO-31): > 100 µM (inactive)
GI50 (HCT-116): 55.7 µM (inactive)
GI50 (RXF 393): > 100 µM (inactive)
GI50 (ACHN): > 100 µM (inactive)
GI50 (K562): > 100 µM (inactive)
GI50 (DMS-114): 19.6 µM (inactive)
GI50 (HOP-62): > 100 µM (inactive)
GI50 (KM-20L2): > 100 µM (inactive)
GI50 (HL-60): 75.3 µM (inactive)
GI50 (HCC 2998): > 100 µM (inactive)
GI50 (TK-10): > 100 µM (inactive)
GI50 (HT-29): > 100 µM (inactive)
GI50 (LOX IMVI): 68.9 µM (inactive)
GI50 (SK-MEL-28): > 100 µM (inactive)
GI50 (LXFL 529): > 100 µM (inactive)
GI50 (SNB-78): > 100 µM (inactive)
GI50 (UACC-62): > 100 µM (inactive)
GI50 (U-251): > 100 µM (inactive)
GI50 (KM12): > 100 µM (inactive)
GI50 (DLD-1): > 100 µM (inactive)
GI50 (UACC-257): > 100 µM (inactive)
GI50 (COLO 205): 19.2 µM (inactive)
GI50 (SNB-19): > 100 µM (inactive)
GI50 (OVCAR-5): > 100 µM (inactive)
GI50 (HCT-15): 15.5 µM
GI50 (OVCAR-4): > 100 µM (inactive)
GI50 (EKVX): > 100 µM (inactive)
GI50 (SK-MEL-2): > 100 µM (inactive)
GI50 (SK-MEL-5): > 100 µM (inactive)
GI50 (A498): > 100 µM (inactive)
GI50 (SF-539): > 100 µM (inactive)
GI50 (SF-295): > 100 µM (inactive)
GI50 (A549): > 100 µM (inactive)
GI50 (RXF 631): > 100 µM (inactive)
GI50 (IGROV-1): > 100 µM (inactive)
GI50 (Malme-3M): > 100 µM (inactive)
GI50 (SN12C): > 100 µM (inactive)
GI50 (M14): > 100 µM (inactive)
GI50 (SW-620): 14.9 µM (inactive)
GI50 (SK-OV-3): > 100 µM (inactive)
GI50 (CAKI-1): > 100 µM (inactive)
GI50 (CCRF-CEM): > 100 µM (inactive)
GI50 (SF-268): > 100 µM (inactive)
GI50 (NCI-H460): 38.7 µM (inactive)
GI50 (DMS-273): 40.4 µM (inactive)

Reference: ChEMBL document CHEMBL1201862, “PubChem BioAssay data set” (2004)
